# Tests used:
# [1] = system: Jurkat cell (ATCC TIB-152); assay: Jurkat cell apoptosis induced by Fas antibody, WST-1 method; type: cell-based; settings: Homo sapiens, amount of alive cells by WST-1
# Protocol: The […] inhibitory activity of the inhibitors was determined by subjecting Jurkat cell (ATCC TIB-152) to apoptosis using Fas antibody (Upstate Biotech 05-201) and by detecting the color change according to the WST-1 method known in Francoeur A. M. and Assalian A. (1996) Biochemica 3, 19-25 to observe the amount of alive Jurkat cells when the cells were treated by the inhibitor. Spectra MAX 340 Spectrometer of Molecular Device Co. was used at the absorbance wavelength of 440 nm.
# Caspase-8 = biological target: T1, Caspase-8 (Homo sapiens, UniProt Q14790); assay: Caspase inhibitory effect, fluorescent substrate AcDEVD-AFC; type: biochemical; settings: pH 7.5; 2.1 nM caspase-8, 50 μM AcDEVD-AFC, 25° C., pH 7.50; read-out: Caspase-8 Kobs/[I] (converted)
# T1 construct: p10 and p20 subunits (Thornberry, N. A. et al, Nature, 1992, 356, 768) were expressed in E. coli; made in house; host or cells: E. coli
# T1 sequence (Q14790 217-374 limits assumed, species assumed): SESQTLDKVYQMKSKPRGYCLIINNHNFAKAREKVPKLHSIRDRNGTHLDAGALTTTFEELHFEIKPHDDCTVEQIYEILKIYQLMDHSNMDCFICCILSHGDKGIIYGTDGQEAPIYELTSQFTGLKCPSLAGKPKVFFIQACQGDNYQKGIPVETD
# T1 sequence (Q14790 385-479 limits assumed, species assumed): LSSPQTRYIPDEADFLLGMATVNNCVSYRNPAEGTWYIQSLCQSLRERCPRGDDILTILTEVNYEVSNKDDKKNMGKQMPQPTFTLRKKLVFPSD
# Protocol: Caspase-1 and caspase-8 known as cysteine proteases in the form of α2β2 were expressed, purified, and activated by modifying a method known in Thornberry, N. A. et al, Nature, 1992, 356, 768. Thornberry, N. A. Methods in Enzymology, 1994, 244, 615. Walker, N. P. C. et al. Cell, 1994, 78, 343, and caspase-9 was also purified by a similar method, and the inhibitory activity against them was tested. Briefly describing, p10 and p20 subunits (Thornberry, N. A. et al, Nature, 1992, 356, 768) were expressed in E. coli and purified by nickel column and anionic exchange chromatography to give caspase-1, caspase-8 and caspase-9. The fluorescent substrates AcYVAD-AFC for thus obtained caspase-1, AcDEVD-AFC for caspase-8, and AcLEHD-AFC for caspase-9, were used for determining specific activity of the synthesized inhibitors. The enzyme reaction was carried out at 25° C. with various concentrations of the inhibitors in a buffer solution containing 50 mM HEPES(pH 7.50), 10% (w/v) sucrose, 0.1% (w/v) CHAPS, 100 mM NaCl, 1 mM EDTA, and 10 mM DTT in the presence of 50 μM AcYVAD-AFC for 10 nM caspase-1, 50 μM AcDEVD-AFC for 2.1 nM caspase-8, and 150 μM AcLEHD-AFC for 200 nM caspase-9. The inhibitory constants Ki and Kobs of the inhibitors were determined by measuring the reaction velocity with the time lapse using a fluorescent spectrometer and by obtaining the initial rate constant. Ki was calculated from the Lineweaver Burk Plot, and Kobs from the following Equation 1. Kobs=−ln(1−At/Aoo)/t [Equation 1]
# At means cleavage rate (%) at time t, and
# Aoo means the maximum cleavage rate (%).
# Spectra MAX GeminiXS Fluorescent Spectrometer of Molecular Device Co. was used at the excitation wavelength of 405 nm and the emission wavelength of 505 nm.
Structure (SMILES),IC50 [1],kinact/KI (Caspase-8)
"CC[C@H](C(=O)N[C@@H](CC(=O)O)C(=O)COC(=O)c1c(Cl)cccc1Cl)c1ccnn(Cc2ccccc2C(C)(C)C)c1=O (single isomer, unassigned) [Example 23-2]",2480 nM,933 M⁻¹ s⁻¹
"CCC(C(=O)NC(CC(=O)O)C(=O)CF)c1c(C)cnn(-c2ccccc2)c1=O (centres unmarked) [Example 1, 5-Fluoro-3-[2-(5-methyl-3-oxo-2-phenyl-2,3-dihydro-pyridazin-4-yl)-butyrylamino]-4-oxo-pentanoic acid]",8000 nM,967 M⁻¹ s⁻¹
"CCC(C(=O)NC(CC(=O)O)C(=O)CF)c1c(C)cnn(Cc2ccccc2)c1=O (centres unmarked) [Example 2, 3-[2-(2-Benzyl-5-methyl-3-oxo-2,3-dihydro-pyridazin-4-yl)-butyrylamino]-5-f luoro-4-oxo-pentanoic acid]",1480 nM,7330 M⁻¹ s⁻¹
"CCC(C(=O)NC(CC(=O)O)C(=O)CF)c1ccnn(Cc2ccccc2)c1=O (centres unmarked) [Example 3, 3-[2-(2-Benzyl-3-oxo-2,3-dihydro-pyridazin-4-yl)-butyrylamino]-5-fluoro-4-o xo-pentanoic acid]",460 nM,21700 M⁻¹ s⁻¹
"CCC(C(=O)NC(CC(=O)O)C(=O)CF)c1c(Cl)cnn(Cc2ccccc2)c1=O (centres unmarked) [Example 4, 3-[2-(2-Benzyl-5-chloro-3-oxo-2,3-dihydro-pyridazin-4-yl)-butyrylamino]-5-fl uoro-4-oxo-pentanoic acid]",390 nM,6830 M⁻¹ s⁻¹
"CCC(C(=O)NC(CC(=O)O)C(=O)CF)c1c(OC)cnn(Cc2ccccc2)c1=O (centres unmarked) [Example 5, 3-[2-(2-Benzyl-5-methoxy-3-oxo-2,3-dihydro-pyridazin-4-yl)-butyrylamino]-5-fluoro-4-oxo-pentanoic acid]",2070 nM,3830 M⁻¹ s⁻¹
"CCC(C(=O)NC(CC(=O)O)C(=O)CF)c1ccnn(Cc2ccccc2C)c1=O (centres unmarked) [Example 8, 5-Fluoro-3-2-[2-(2-methyl-benzyl)-3-oxo-2,3-dihydro-pyridazin-4-yl]-butyryl amino-4-oxo-pentanoic acid]",820 nM,20000 M⁻¹ s⁻¹
"CCC(C(=O)NC(CC(=O)O)C(=O)CF)c1ccnn(Cc2cccc(C)c2)c1=O (centres unmarked) [Example 9, 5-Fluoro-3-2-[2-(3-methyl-benzyl)-3-oxo-2,3-dihydro-pyridazin-4-yl]-butyryl amino-4-oxo-pentanoic acid]",880 nM,50000 M⁻¹ s⁻¹
"CCC(C(=O)NC(CC(=O)O)C(=O)CF)c1ccnn(Cc2cccc(OC)c2)c1=O (centres unmarked) [Example 10, 5-Fluoro-3-2-[2-(3-methoxy-benzyl)-3-oxo-2,3-dihydro-pyridazin-4-yl]-butyr ylamino-4-oxo-pentanoic acid]",550 nM,20000 M⁻¹ s⁻¹
"CCC(C(=O)NC(CC(=O)O)C(=O)CF)c1ccnn(Cc2ccc3ccccc3c2)c1=O (centres unmarked) [Example 12, 5-Fluoro-3-[2-(2-naphthalen-2-ylmethyl-3-oxo-2,3-dihydro-pyridazin-4-yl)-butyrylamino]-4-oxo-pentanoic acid]",290 nM,15500 M⁻¹ s⁻¹
"CCC(C(=O)NC(CC(=O)O)C(=O)CF)c1ccnn(Cc2coc(C)n2)c1=O (centres unmarked) [Example 13, 5-Fluoro-3-2-[2-(2-methyl-oxazol-4-ylmethyl)-3-oxo-2,3-dihydro-pyridazin-4-yl]-butyrylamino-4-oxo-pentanoic acid]",3760 nM,11500 M⁻¹ s⁻¹
"CCC(C(=O)NC(CC(=O)O)C(=O)CF)c1ccnn(Cc2csc(C)n2)c1=O (centres unmarked) [Example 14, 5-Fluoro-3-2-[2-(2-methyl-thiazol-4-ylmethyl)-3-oxo-2,3-dihydro-pyridazin-4-yl]-butyrylamino-4-oxo-pentanoic acid]",730 nM,14000 M⁻¹ s⁻¹
"CCC(C(=O)NC(CC(=O)O)C(=O)CF)c1ccnn(Cc2c(C)noc2C)c1=O (centres unmarked) [Example 15, 3-2-[2-(3,5-Dimethyl-isoxazol-4-ylmethyl)-3-oxo-2,3-dihydro-pyridazin-4-yl]-butyrylamino-5-fluoro-4-oxo-pentanoic acid]",800 nM,12000 M⁻¹ s⁻¹
"CC[C@H](C(=O)N[C@@H](CC(=O)O)C(=O)COc1c(F)ccc(F)c1F)c1ccnn(Cc2ccccc2C(C)(C)C)c1=O [Example 26-2, (S)-3-{(S)-2-[2-(2-tert-Butyl-benzyl)-3-oxo-2,3-dihydro-pyridazin-4-yl]-butyrylamino}-4-oxo-5-(2,3,6-trifluoro-phenoxy)-pentanoic acid]",,7830 M⁻¹ s⁻¹
"CC[C@H](C(=O)N[C@@H](CC(=O)O)C(=O)COc1c(F)cccc1F)c1ccnn(Cc2ccccc2C(C)(C)C)c1=O [Example 27-2, (S)-3-{(S)-2-[2-(2-tert-Butyl-benzyl)-3-oxo-2,3-dihydro-pyridazin-4-yl]-butyrylamino}-5-(2,6-difluoro-phenoxy)-4-oxo-pentanoic acid]",,3170 M⁻¹ s⁻¹

# The remaining compounds from weak to strong by IC50 [1], led by results:
IC50 [1],kinact/KI (Caspase-8),Structure (SMILES)
216 nM,14300 M⁻¹ s⁻¹,"CCC(C(=O)NC(CC(=O)O)C(=O)CF)c1ccnn(Cc2cccc(C(F)(F)F)c2)c1=O (centres unmarked) [Example 22, 5-Fluoro-4-oxo-3-{2-[3-oxo-2-(3-trifluoromethyl-benzyl)-2,3-dihydro-pyridazin-4-yl]-butyrylamino}-pentanoic acid]"
170 nM,56700 M⁻¹ s⁻¹,"CCC(C(=O)NC(CC(=O)O)C(=O)CF)c1ccnn(Cc2cccc3ccccc23)c1=O (centres unmarked) [Example 11, 5-Fluoro-3-[2-(2-naphthalen-1-ylmethyl-3-oxo-2,3-dihydro-pyridazin-4-yl)-butyrylamino]-4-oxo-pentanoic acid]"
140 nM,20000 M⁻¹ s⁻¹,"CC[C@@H](C(=O)N[C@@H](CC(=O)O)C(=O)COC(=O)c1c(Cl)cccc1Cl)c1ccnn(Cc2ccccc2C(C)(C)C)c1=O (single isomer, unassigned) [Example 23-1]"
130 nM,25000 M⁻¹ s⁻¹,"CCC(C(=O)NC(CC(=O)O)C(=O)CF)c1ccnn(Cc2nccc3ccccc23)c1=O (centres unmarked) [Example 17, 5-Fluoro-3-[2-(2-isoquinolin-1-ylmethyl-3-oxo-2,3-dihydro-pyridazin-4-yl)-butyrylamino]-4-oxo-pentanoic acid]"
90 nM,12300 M⁻¹ s⁻¹,"CCC(C(=O)NC(CC(=O)O)C(=O)CF)c1ccnn(CC2CCCCC2)c1=O (centres unmarked) [Example 16, 3-[2-(2-Cyclohexylmethyl-3-oxo-2,3-dihydro-pyridazin-4-yl)-butyrylamino]-5-fluoro-4-oxo-pentanoic acid]"
43 nM,18300 M⁻¹ s⁻¹,"CCC(C(=O)NC(CC(=O)O)C(=O)CF)c1ccnn(Cc2cccc(Br)c2)c1=O (centres unmarked) [Example 20, 3-{2-[2-(3-Bromo-benzyl)-3-oxo-2,3-dihydro-pyridazin-4-yl]-butyrylamino}-5-fluoro-4-oxo-pentanoic acid]"
43 nM,66700 M⁻¹ s⁻¹,"CCC(C(=O)NC(CC(=O)O)C(=O)CF)c1ccnn(Cc2ccccc2C(F)(F)F)c1=O (centres unmarked) [Example 21, 5-Fluoro-4-oxo-3-{2-[3-oxo-2-(2-trifluoromethyl-benzyl)-2,3-dihydro-pyridazin-4-yl]-butyrylamino}-pentanoic acid]"
42 nM,63300 M⁻¹ s⁻¹,"CCC(C(=O)NC(CC(=O)O)C(=O)CF)c1ccnn(Cc2ccccc2C(C)(C)C)c1=O (centres unmarked) [Example 6, 3-2-[2-(2-tert-Butyl-benzyl)-3-oxo-2,3-dihydro-pyridazin-4-yl]-butyrylamino-5-fluoro-4-oxo-pentanoic acid]"
42 nM,73300 M⁻¹ s⁻¹,"CCC(C(=O)NC(CC(=O)O)C(=O)CF)c1ccnn(Cc2ccccc2Cl)c1=O (centres unmarked) [Example 18, 3-{2-[2-(2-Chloro-benzyl)-3-oxo-2,3-dihydro-pyridazin-4-yl]-butyrylamino}-5-fluoro-4-oxo-pentanoic acid]"
35 nM,23300 M⁻¹ s⁻¹,"CCC(C(=O)NC(CC(=O)O)C(=O)CF)c1ccnn(Cc2cccc(C(C)(C)C)c2)c1=O (centres unmarked) [Example 7, 3-2-[2-(3-tert-Butyl-benzyl)-3-oxo-2,3-dihydro-pyridazin-4-yl]-butyrylamino-5-fluoro-4-oxo-pentanoic acid]"
35 nM,28300 M⁻¹ s⁻¹,"CCC(C(=O)NC(CC(=O)O)C(=O)CF)c1ccnn(Cc2cccc(Cl)c2)c1=O (centres unmarked) [Example 19, 3-{2-[2-(3-Chloro-benzyl)-3-oxo-2,3-dihydro-pyridazin-4-yl]-butyrylamino}-5-fluoro-4-oxo-pentanoic acid]"
